Laboratory results published in PMC8711299, “Rational Designed Hybrid Peptides Show up to a 6-Fold Increase in Antimicrobial Activity and Demonstrate Different Ultrastructural Changes as the Parental Peptides Measured by BioSAXS” (Frontiers in Pharmacology, 2021).
Values after ≈ are worked out from the molar mass of the structure shown. Positions of bridges follow the written chain, without caps; N, C: chain ends. Residues, ends and D or L forms follow the SMILES beside them. No end group written: not given here.

Experiments:
[1] = system: methicillin-resistant Staphylococcus aureus HO 5096 0412 (MRSA); assay type: cell-based; settings: methicillin-resistant HO 5096 0412
Text: (§1) In this project the following bacterial strains were used: 1) methicillin-resistant Staphylococcus aureus (S. aureus) HO 5096 0412 (a neonatal infection isolate, isolated in Ipswich, England in 2005, obtained from Jody Lindsay (St. George’s, University of London), 2) Escherichia coli (E. coli, UB1005, F-, LAM-, gyrA37, relA1, spoT1, metB1, LAMR) used solely for transmission electron microscopy, E. coli (ATCC 25922), 3) Pseudomonas aeruginosa PAO1 obtained from Dr Robert E.W. Hancock (Department of Microbiology and Immunology, University of British Columbia).
(§2) Mueller-Hinton broth (MHb) (Merck, Life Science UK Limited, Dorset, UK)) was prepared concurring to the manufacturer’s directions was used to grow the bacterial strains. Liquid bacterial cultures were incubated at 37°C for 18–20 h on a shaker, bacterial culture on solid media was incubated for 18–24 h at 37°C.
(§3) A broth microdilution assay was applied to determine the minimum inhibitory concentrations (MIC) in MHb for both, using 5 × 10^5 CFU/ml (MICs in Table 1) and 10^8 CFU/ml (BioSAXS and electron microscopy, values in Table 2). A detailed description of the method can be found in the open-source publication by von Gundlach et al. (von Gundlach et al., 2019a).

[2] = system: Pseudomonas aeruginosa PAO1; assay type: cell-based
Text: as §1, §2, §3

E. coli [3] = assay type: cell-based, Escherichia coli
Text: as §1, §2, §3

E. coli [4] = assay type: cell-based, Escherichia coli; remark: listed apart in the source
Text: as §3
Quite early on in our drug development process, we have selected optP7 over optP1 for a slightly better MIC against P. aeruginosa. Further investigations were performed with peptide optP7 only. Firstly, we investigated E. coli cells treated with optP7 by transmission electron microscopy (TEM) to get a better understanding of the mode of action/ultrastructural changes of the peptides on E. coli, see Figure 1. In order to achieve a sufficient number of bacteria to form a pellet, a bacterial concentration of 1 × 10^8 CFU/ml was used. […] The outer membrane of E. coli of the untreated sample appears thick and relatively smooth (Figure 1, arrow 1), whereas for the peptide treated one, it was damaged (Figure 1, arrow 2) and blebbing was visible (Figure 1, arrow 3), where lipopolysaccharides (LPS) form small vesicles and are shed from the cell. The inner membrane for both, the untreated control (Figure 1A, arrow 4), and the peptide treated E. coli (Figure 1, arrow 5) seemed to remain intact and no spillage of the cytosol content was observed. The DNA in untreated bacterial cells comprised dispersed fibrils in the cytoplasm, see Figure 1, dotted lines. The bacterial DNA is concentrated in a ‘DNA–plasm’ called the nucleoid ([Ohniwa et al., 2007]). The peptide optP7 creates an enlarged and spherical nucleoid, dotted line in Figure 1., typically seen in DNA-dependent RNA polymerase inhibitors and protein synthesis inhibitors. Compared to the untreated bacteria (Figure 1, arrow 6), the peptide treated ones show more pronounced granular substructures (Figure 1, arrow 7) in the cytosol could indicate aggregation of cytosolic proteins. These substructures were observed before using small AMPs ([Von Gundlach et al., 2016a], [2019]).
Small-angle X-ray scattering for biological samples (BioSAXS) on the P12 beamline can be used to measure ultrastructural changes within the bacteria in the range between 2 and 157 nm, from which we used the range from 20 to 120 nm for analysis of the bacteria after treatment with the antimicrobial peptides. […] The MICs for the selected peptides against E. coli at 1 × 10^8 CFU/ml were determined (Table 2). […] To quantify the subtle changes between the different treatments we used a PCA analysis using SciXMiner and the “Peptide Extension” tool ([Mikut, 2010]; [Mikut et al., 2017]) (Figure 4). […]

human red blood cells = assay type: cell-based; settings: for HC50 (peptide concentration needed to induce haemolysis in human red blood cells at 50%): red cells of human, 1 h
Protocol: The protocol to determine the haemolytic activity of the peptides and HC50 values were described previously ([Grimsey et al., 2020]). Briefly, human blood was washed and diluted with PBS (4% v/v) and incubated with a pre-made dilution series of the peptides and incubated for 1 h at 37 C. The 100% haemolysis value was achieved by incubation with Triton X (1% final concentration). Haemoglobin was measured at 414 and 546 nm using an ELISA plate reader. HC50 values were determined using the Prism software (GraphPad).

E. coli [5] = test: MIC of standard antibiotics against E. coli (BioSAXS comparison); assay type: cell-based, Escherichia coli; settings: used at 3x MIC, 240 min incubation, for BioSAXS
Text: To discuss the obtained results in the context of conventional antibiotics, compared the peptides to three antibiotics, tigecycline (bacteriostatic activity by binding to the […] ribosomal subunit of the bacterial ribosome), chloramphenicol (bacteriostatic activity by binding to the […] ribosomal subunit of the bacterial ribosome), and rifampicin (bactericidal activity by inhibiting the DNA-dependent RNA polymerase activity), see Figure 5. […] As the antibiotics have slower kill kinetics than the AMPs, 240 min incubation time was used. […] The PCA values of Bac5-v291 and hyP7B5GK deviate strongly from the untreated controls and the standard antibiotics. The PCA values of peptides hyP7B5Cys and optP7 are nearest to chloramphenicol.

| Compound | MIC MRSA [1] | MIC PA (P. aeruginosa) [2] | MIC E. coli (E. coli [3]) | MIC E. coli at 1 × 10^8 CFU/ml (E. coli [4]) | Therapeutic window HC50/MIC(MRSA) (human red blood cells) | HC50 (peptide concentration needed to induce haemolysis in human red blood cells at 50%) (human red blood cells) | MIC against E. coli (standard antibiotics) (E. coli [5]) |
| --- | --- | --- | --- | --- | --- | --- | --- |
| CC[C@H](C)[C@H](NC(=O)[C@H](Cc1c[nH]c2ccccc12)NC(=O)[C@H](CCCNC(=N)N)NC(=O)[C@@H](NC(=O)[C@H](CCCNC(=N)N)NC(=O)[C@H](CCCNC(=N)N)NC(=O)[C@H](CCCCN)NC(=O)CNC(=O)[C@H](CCCCN)NC(=O)[C@@H]1CSSC[C@H](NC(=O)[C@H](CCCCN)NC(=O)CNC(=O)[C@H](CCCCN)NC(=O)[C@H](CCCNC(=N)N)NC(=O)[C@H](Cc2c[nH]c3ccccc23)NC(=O)[C@H](Cc2ccccc2)NC(=O)[C@@H]2CCCN2C(=O)[C@@H]2CCCN2C(=O)[C@H](CCCNC(=N)N)NC(=O)[C@@H](NC(=O)[C@@H]2CCCN2C(=O)[C@H](CCCNC(=N)N)NC(=O)[C@H](CCCNC(=N)N)NC(=O)[C@H](CCCNC(=N)N)NC(=O)[C@@H](NC(=O)[C@@H]2CCCN2C(=O)[C@H](CCCNC(=N)N)NC(=O)[C@H](CCCNC(=N)N)NC(=O)[C@H](Cc2c[nH]c3ccccc23)NC(=O)[C@@H](N)CCCNC(=N)N)[C@@H](C)CC)[C@@H](C)CC)C(=O)N[C@@H](CO)C(=O)N[C@@H](CO)C(=O)N1)C(C)C)C(=O)N[C@H](C(=O)N[C@@H](Cc1c[nH]c2ccccc12)C(N)=O)[C@@H](C)CC [hyP7B5Cys] (H-RWRRPIRRRPIRPPFWRKGKCSSCKGKRRVRWIIW-NH2; disulfide 21-24) | 1 µM (≈ 4.57 µg/mL) | 2 µM (≈ 9.15 µg/mL) | 0.6 µM (≈ 2.74 µg/mL) | 4 µM | >102 | 102 µM | – |
| VRKPPYLPRPRPRPL-NH2 [consP1] | >139 µM | >139 µM | 35 µM | – | – | >139 µM | – |
| RWRRPIRRRPIRPPFWRGGGKRRVRWIIW-NH2 [hyP7B5G] | 2 µM | 2 µM | 2 µM | – | 51 | 102 µM | – |
| KIILRIRWR-NH2 [optP1] | 1.5 µM | 6 µM | 1 µM | – | 137 | 205 µM | – |
| CO[C@H]1/C=C/O[C@@]2(C)Oc3c(C)c(O)c4c(O)c(c(/C=N/N5CCN(C)CC5)c(O)c4c3C2=O)NC(=O)/C(C)=C\C=C\[C@H](C)[C@H](O)[C@@H](C)[C@@H](O)[C@@H](C)[C@H](OC(C)=O)[C@@H]1C [rifampicin] | – | – | – | – | – | – | 15 µg/mL |
| RWRRPIRRRPIRPPFWRKGKGKGKRRVRWIIW-NH2 [hyP7B5GK] | 1 µM | 2 µM | 1 µM | 4 µM | >120 | >120 µM | – |
| KIILRIRWRGGGVRKPPYLPRPRPRPL-NH2 [hyP1CoG1] | 2.5 µM | 1 µM | 1 µM | – | >62.8 | >157 µM | – |
| CN(C)c1cc(NC(=O)CNC(C)(C)C)c(O)c2c1C[C@H]1C[C@H]3[C@H](N(C)C)C(O)=C(C(N)=O)C(=O)[C@@]3(O)C(O)=C1C2=O [tigecycline] | – | – | – | – | – | – | 4 µg/mL |
| KRRVRWIIWGGGVRKPPYLPRPRPRPL-NH2 [hyP7CoG2] | 5 µM | 2.5 µM | 2.5 µM | – | >30.8 | >154 µM | – |
| RWRRPIRRRPIRPPFWR-NH2 [Bac5-v291] | 27 µM | 27 µM | 1.7 µM | 1.1 µM | >10.3 | >278 µM | – |
| VRKPPYLPRPRPRPLGGGKRRVRWIIW-NH2 [hyP7CoG1] | 5 µM | 5 µM | 1 µM | – | >30.8 | >154 µM | – |
| RWRRPIRRRPIRPPFWRKKKKRRVRWIIW-NH2 [hyP7B5K] | 2 µM | 2 µM | 2 µM | – | 41 | 82 µM | – |
| VRKPPYLPRPRPRPLGGGKIILRIRWR-NH2 [hyP1CoG2] | 2.5 µM | 2.5 µM | 1 µM | – | >62.8 | >157 µM | – |
| KRRVRWIIW-NH2 [optP7] | 6 µM | 3 µM | 1.5 µM | 14 µM | >32.5 | >195 µM | – |
| O=C(N[C@H](CO)[C@H](O)c1ccc([N+](=O)[O-])cc1)C(Cl)Cl [chloramphenicol] | – | – | – | – | – | – | 8 µg/mL |
